Measurements as given in patent US20090048340A1, “GROWTH HORMONE SECRETION REGULATOR” (AJINOMOTO CO., INC., priority 2006, published 2009).

What was measured:
growth hormone secretion [1] = assay: Growth hormone secretion regulating function, intravenous administration of amino acid solutions; type: in vivo, shiba-goat (capra hircus); conditions: aspartic acid 0.75 mmol/kg, valine 1.0 mmol/kg, blood 6 h before to 12 h after administration, n=3
Description: The growth hormone secretion regulating function of amino acids to be used in the present invention was evaluated by investigating changes in growth hormone secretion caused by intravenous administration of amino acid solutions. The details are as follows.
Special grade aspartic acid (Ajinomoto Co., Inc.) and valine (Ajinomoto Co., Inc.) were used as L-type amino acid samples. The amino acids were dissolved in purified water or an aqueous solution of 5% carboxymethylcellulose and administered as aqueous solutions (pH 7.0 to 8.0).
Two- to four-year-old mature castrated male and female shiba-goats (25 to 35 kg), purchased from the farm of Tokyo University, were domesticated for about one week. Aspartic acid (0.75 mmol/kg), valine (1.0 mmol/kg), and a mixture thereof, prepared in the same way as above, were administered intravenously via a cannula placed in the jugular vein, and blood was collected continuously during a period between 6 hours before and 12 hours after administration every 15 minutes via the cannula placed in the jugular vein, followed by investigation of changes in growth hormone secretion (n=3). The concentrations of the growth hormone in blood were measured by radioimmunoassay based on a double antibody method.
The growth hormone and antibody used in the radioimmunoassay were purchased from National institute of Diabetes and Digestive and Kidney Diseases. The other procedures were performed based on a reference (Hashizume T et al., Animal Science Technology 62: 343-350). The minimum measured concentration was 1 ng/ml, while the maximum measured concentration was 512 ng/ml. The intra-assay variation and inter-assay variation were 11.6% and 12.3%, respectively.

growth hormone secretion [2] = assay: Growth hormone secretion regulating function, oral administration of amino acid solutions; type: in vivo, shiba-goat (capra hircus); conditions: sodium aspartate monohydrate 5 mmol/kg, valine 5 mmol/kg, blood 6 h before to 12 h after administration, n=3
Description: Two- to four-year-old mature castrated male and female shiba-goats (25 to 35 kg), purchased from the farm of Tokyo University, were domesticated for about one week. Sodium aspartate monohydrate (5 mmol/kg, 861 mg/kg), valine (5 mmol/kg, 586 mg/kg), and a mixture thereof, prepared in the same way as Example 1, were administered orally to the shiba-goats, and blood was collected continuously during a period between 6 hours before and 12 hours after administration every 15 minutes via a cannula placed in the jugular vein, followed by investigation of changes in growth hormone secretion (n=3). The concentrations of the growth hormone in blood were measured by immunoassay in which europium was used.
The growth hormone and antibody used in the immunoassay were purchased from National institute of Diabetes and Digestive and Kidney Diseases. The other procedures were performed based on a reference (Sugino T et al., Biochemical and biophysical research communications 295: 255-60). The minimum measured concentration was 2 ng/ml, while the maximum measured concentration was 126 ng/ml. The intra-assay variation and inter-assay variation were 11.3% and 8.6%, respectively.

N[C@@H](CC(=O)O)C(=O)O [aspartic acid]
no changes: amount of the growth hormone secreted in a pulse-like manner (growth hormone secretion [1]) | secretion patterns of the growth hormone secreted in a pulse-like manner at a certain frequency (growth hormone secretion [1]) | amount of the growth hormone secreted in a pulse-like manner (growth hormone secretion [2]) | secretion patterns of the growth hormone secreted in a pulse-like manner at a certain frequency (growth hormone secretion [2])

CC(C)[C@H](N)C(=O)O [valine]
no changes: amount of the growth hormone secreted in a pulse-like manner (growth hormone secretion [1]) | secretion patterns of the growth hormone secreted in a pulse-like manner at a certain frequency (growth hormone secretion [1]) | amount of the growth hormone secreted in a pulse-like manner (growth hormone secretion [2]) | secretion patterns of the growth hormone secreted in a pulse-like manner at a certain frequency (growth hormone secretion [2])
